Where only a bound is given, the exact number is not on record here.

Results on 14 compounds are retold here after patent US20240352029A1, “CDK Inhibitors And Their Use As Pharmaceuticals” (Prelude Therapeutics Incorporated, priority 2023, published 2024).

The target in one experiment is T1, CDK4/Cyclin D1 (Homo sapiens, UniProt P11802).
T1 construct: purchased ProQinase; host or cells: insect cell
In words: CDK4/CyclinD1 enzymatic activity assay (TR-FRET). Type of experiment: biochemical. The following applies: ATP 2 mM final, read-out: CDK4_D1 IC50. As for the experimental part:
CDK4/CyclinD1 Enzymatic Activity Assay
(§1) The inhibitory activity of compounds was evaluated in vitro using TR-FRET assay with white 384-well low volume microplate (Greiner Bio-One). CDK4/Cyclin D1 catalyzed phosphorylation of peptide in the presence and absence of compounds was measured and used in IC50 determination. Recombinant protein complex CDK4/Cyclin D1, expressed from insect cell, was purchased from ProQinase. Testing compounds were dissolved in DMSO at 1 mM and tested in 9-dose IC50 mode. The reaction mixture was prepared by mixing CDK4/CyclinD1 (1 nM final), ULight-4E-BP1 (100 nM final, Perkinelmer, TRF0128-D), and ATP (2 mM final) in assay buffer (20 mM of HEPES pH 7.4, 1 mM of EGTA, 0.05% BSA, 0.005% Tween 20, and 1 mM TCEP). The compound of interest in DMSO was added to each well in 3-fold serial dilution by dispenser (TECAN D300E) to make a 9.9 μL of reaction mixture. After 20 minutes preincubation at room temperature, 0.1 μL MgCl2 (10 mM final) was added to initiate the reaction. Following a 45 minutes incubation at 37° C., the reaction was stopped by addition of 2 μL of quenching buffer consisting of Lance detection buffer (Perkinelmer CR97-100C), LANCE Ultra Europium-anti-P-4E-BP1 (Perkinelmer, TRF0216-D), EDTA, and incubate at room temperature for additional 60 minutes in dark. The reaction signal was measured by Envision multimode plate reader (PerkinElmer, 2102-0010). IC50 values were determined by fitting the data to the standard 4 parameters with Hill Slope using GraphPad Prism software.
(In general: TR-FRET usually uses a lanthanide donor and a delayed reading to cut background.)

In another experiment the target is CDK2/Cyclin E2 (Homo sapiens, UniProt P24941). In words: CDK2/CyclinE2 enzymatic activity assay (TR-FRET). The following applies: ATP 1 mM final, read-out: CDK2_E1 IC50. Type of experiment: biochemical. As for the experimental part:
CDK2/CyclinE2 Enzymatic Activity Assay
as §1, with “Bio-One). CDK2/Cyclin E2” for “Bio-One). CDK4/Cyclin D1”, “complex CDK2/Cyclin E2,” for “complex CDK4/Cyclin D1,”, “mixing CDK2/CyclinE2” for “mixing CDK4/CyclinD1”, “ULight-4E-BP1 (50” for “ULight-4E-BP1 (100”, “ATP (1” for “ATP (2”

The subject of another experiment is OVCAR3 p-RB. In words: pRB ICW assay in OVCAR3 cells. Type of experiment: cell-based. The settings on record: Homo sapiens, OVCAR-3, 2 hours incubation with compound. As for the experimental part: pRB ICW Assay in OVCAR3 Cells
OVCAR3 cells were maintained in RPMI (Corning, Catalog #: 10-040-CV) supplemented with 10% v/v FBS (Gibco, Catalog #: 26140-079), 1% v/v Penicillin Streptomycin (Gibco, Catalog #15140-122.) OVCAR3 cells grown at log phase were trypsinized, counted, and resuspended in fresh medium to reach a final density of 6.7e4 cells/ml and 75 μL of culture were dispensed into a 384-well plate (Falcon, cat #353962) using Multidrop Combi dispenser (Thermo Scientific). The next day, compounds were dispensed as a 9-point, ½ log serial dilution using a Tecan digital dispenser (D300e), and cells were incubated with compound for 2 hours in a humidified incubator at 37° C. A reference compound at a final concentration of 10 μM was used as a control for maximum inhibition. Each compound was tested in duplicates in each experiment. At the end of the incubation, 25 μl of 16% paraformaldehyde (Electron Microscopy, cat #15710) was slowly added to each well and the plate was incubated at room temperature (RT) for 30 minutes to fix cells. Cells were then permeabilized by incubating with 50 μl/well of wash buffer (1×PBS with 0.1% Triton X-100) 5×5 minutes, followed by 1 hour blocking with 30 μl/well of Odyssey blocking buffer (Li—COR, cat #927-40000), all at RT. Anti-phosphor RB antibody (Cell signaling 8516S) was diluted 1:1000 in Odyssey blocking buffer and 20 μl was added to all wells and incubated overnight in 4° C. with gently rocking. The next day, cells were washed 5×5 min with 50 μl/well of wash buffer, followed with 1 hour incubation with secondary antibody and DRAQ5 diluted in Odyssey blocking buffer (1:500 dilution for secondary antibody and 1:2000 dilution for DRAQ5), 5×5 min washes, and one last wash with water. Plates were dried in 37° C. oven for 5 min and scanned using Li—COR Odyssey CLx imaging system to acquire intensities at 700 and 800 nm channels.

T1 sequence (P11802 whole entry): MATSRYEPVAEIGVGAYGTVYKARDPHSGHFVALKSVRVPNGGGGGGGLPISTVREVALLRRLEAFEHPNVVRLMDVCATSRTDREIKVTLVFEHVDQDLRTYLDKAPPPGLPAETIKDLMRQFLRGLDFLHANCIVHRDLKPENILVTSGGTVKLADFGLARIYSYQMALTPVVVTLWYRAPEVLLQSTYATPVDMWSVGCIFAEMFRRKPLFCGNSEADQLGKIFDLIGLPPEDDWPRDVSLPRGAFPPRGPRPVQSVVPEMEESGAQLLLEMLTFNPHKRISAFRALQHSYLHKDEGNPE
T1 sequence (P24385 whole entry partner): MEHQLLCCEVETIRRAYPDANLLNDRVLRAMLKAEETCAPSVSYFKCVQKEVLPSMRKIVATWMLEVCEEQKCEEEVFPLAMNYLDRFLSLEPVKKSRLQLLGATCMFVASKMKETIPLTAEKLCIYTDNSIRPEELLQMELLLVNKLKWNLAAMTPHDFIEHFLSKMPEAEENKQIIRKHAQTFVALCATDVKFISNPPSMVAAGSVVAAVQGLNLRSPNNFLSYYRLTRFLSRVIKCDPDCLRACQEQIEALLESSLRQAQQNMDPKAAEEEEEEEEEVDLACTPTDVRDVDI

As usually defined, the IC50 is the concentration that gives 50% inhibition. With `Cc1c(-c2nc(N[C@H]3CCN(S(C)(=O)=O)C[C@H]3C)ncc2F)sc2c1C(=O)NC2(C)C` [Example 1, 2-(5-Fluoro-2-(((3R,4S)-3-methyl-1-(methylsulfonyl)piperidin-4-yl)amino)pyrimidin-4-yl)-3,6,6-trimethyl-5,6-dihydro-4H-thieno[2,3-c]pyrrol-4-one], the half-inhibitory concentration (IC50) on CDK4/Cyclin D1, on CDK2/Cyclin E2 and with OVCAR3 p-RB was no more than 100 nM each time.
Consider `Cc1c(-c2nc(N[C@H]3CCN(S(C)(=O)=O)C[C@H]3F)ncc2F)sc2c1C(=O)NC2(C)C` [Example 2, 2-(5-fluoro-2-(((3R,4S)-3-fluoro-1-(methylsulfonyl)piperidin-4-yl)amino)pyrimidin-4-yl)-3,6,6-trimethyl-5,6-dihydro-4H-thieno[2,3-c]pyrrol-4-one], for which the half-inhibitory concentration (IC50) on CDK4/Cyclin D1, on CDK2/Cyclin E2 and with OVCAR3 p-RB was no more than 100 nM in each case.
Regarding `Cc1c(-c2nc(NC3CCN(S(C)(=O)=O)CC3)ncc2F)sc2c1C(=O)NC2(C)C` [Example 3, 2-(5-fluoro-2-((1-(methylsulfonyl)piperidin-4-yl)amino)pyrimidin-4-yl)-3,6,6-trimethyl-5,6-dihydro-4H-thieno[2,3-c]pyrrol-4-one], the IC50 on CDK4/Cyclin D1, on CDK2/Cyclin E2 and in the experiment on OVCAR3 p-RB was no more than 100 nM throughout.
For the compound `Cc1c(-c2nc(NC3CCN(S(C)(=O)=O)CC3)ncc2F)sc2c1C(=O)NC2` [Example 4, 2-(5-fluoro-2-((1-(methylsulfonyl)piperidin-4-yl)amino)pyrimidin-4-yl)-3-methyl-5,6-dihydro-4H-thieno [2,3-c]pyrrol-4-one], the half-inhibitory concentration (IC50) on CDK2/Cyclin E2 and with OVCAR3 p-RB was no more than 100 nM in each case.
On to `Cc1c(-c2nc(N[C@H]3CCN(S(C)(=O)=O)C[C@H]3C)ncc2F)sc2c1C(=O)NC2` [Example 5, 2-(5-Fluoro-2-(((3R,4S)-3-methyl-1-(methylsulfonyl)piperidin-4-yl)amino)pyrimidin-4-yl)-3-methyl-5,6-dihydro-4H-thieno[2,3-c]pyrrol-4-one], for which the IC50 on CDK2/Cyclin E2 and in the experiment with OVCAR3 p-RB was no more than 100 nM in each case.
As for `C[C@@H]1CN(S(C)(=O)=O)CC[C@@H]1Nc1ncc(C(F)(F)F)c(-c2cc3c(s2)C(C)(C)NC3=O)n1` [Example 6, 6,6-Dimethyl-2-(2-(((3R,4S)-3-methyl-1-(methylsulfonyl)piperidin-4-yl)amino)-5-(trifluoromethyl)pyrimidin-4-yl)-5,6-dihydro-4H-thieno[2,3-c]pyrrol-4-one], the IC50 at CDK4/Cyclin D1, at CDK2/Cyclin E2 and in the experiment with OVCAR3 p-RB was no more than 100 nM each time.
Regarding `C[C@@H]1CN(S(=O)(=O)c2cnn(C)c2)CC[C@@H]1Nc1ncc(C(F)(F)F)c(-c2cc3c(s2)C(C)(C)NC3=O)n1` [Example 7, 6,6-dimethyl-2-(2-(((3R,4S)-3-methyl-1-((1-methyl-1H-pyrazol-4-yl)sulfonyl)piperidin-4-yl)amino)-5-(trifluoromethyl)pyrimidin-4-yl)-5,6-dihydro-4H-thieno[2,3-c]pyrrol-4-one], the IC50 at CDK4/Cyclin D1, at CDK2/Cyclin E2 and with OVCAR3 p-RB was no more than 100 nM throughout.
`C[C@@H]1CN(S(=O)(=O)c2cn(C)cn2)CC[C@@H]1Nc1ncc(C(F)(F)F)c(-c2cc3c(s2)C(C)(C)NC3=O)n1` [Example 8, 6,6-dimethyl-2-(2-(((3R,4S)-3-methyl-1-((1-methyl-1H-imidazol-4-yl)sulfonyl)piperidin-4-yl)amino)-5-(trifluoromethyl)pyrimidin-4-yl)-5,6-dihydro-4H-thieno[2,3-c]pyrrol-4-one]: the 50% inhibitory concentration (IC50) at CDK4/Cyclin D1, at CDK2/Cyclin E2 and in the experiment with OVCAR3 p-RB was no more than 100 nM in each case.
Consider `C[C@@H]1CN(S(=O)(=O)c2cn[nH]c2)CC[C@@H]1Nc1ncc(C(F)(F)F)c(-c2cc3c(s2)C(C)(C)NC3=O)n1` [Example 9, 2-(2-(((3R,4S)-1-((1H-pyrazol-4-yl)sulfonyl)-3-methylpiperidin-4-yl)amino)-5-(trifluoro-methyl)pyrimidin-4-yl)-6,6-dimethyl-5,6-dihydro-4H-thieno[2,3-c]pyrrol-4-one], for which the IC50 at CDK4/Cyclin D1, on CDK2/Cyclin E2 and in the experiment with OVCAR3 p-RB was no more than 100 nM in each case.
For `C[C@@H]1CN(S(=O)(=O)c2c[nH]cn2)CC[C@@H]1Nc1ncc(C(F)(F)F)c(-c2cc3c(s2)C(C)(C)NC3=O)n1` [Example 10, 2-(2-(((3R,4S)-1-((1H-imidazol-4-yl)sulfonyl)-3-methylpiperidin-4-yl)amino)-5-(trifluoro-methyl)pyrimidin-4-yl)-6,6-dimethyl-5,6-dihydro-4H-thieno[2,3-c]pyrrol-4-one], the IC50 on CDK4/Cyclin D1, on CDK2/Cyclin E2 and in the experiment on OVCAR3 p-RB was no more than 100 nM throughout.
With `Cn1cc(S(=O)(=O)N2CCC(Nc3ncc(C(F)(F)F)c(-c4cc5c(s4)C(C)(C)NC5=O)n3)CC2)cn1` [Example 11, 6,6-dimethyl-2-(2-((1-((1-methyl-1H-pyrazol-4-yl)sulfonyl)piperidin-4-yl)amino)-5-(trifluoro-methyl)pyrimidin-4-yl)-5,6-dihydro-4H-thieno[2,3-c]pyrrol-4-one], the concentration for half-maximal inhibition (IC50) on CDK4/Cyclin D1, at CDK2/Cyclin E2 and in the experiment on OVCAR3 p-RB was no more than 100 nM throughout.
As for `C[C@@H]1CN(S(C)(=O)=O)CC[C@@H]1Nc1ncc(C(F)(F)F)c(-c2cc3c(s2)CNC3=O)n1` [Example 18, 2-(2-(((3R,4S)-3-methyl-1-(methylsulfonyl)piperidin-4-yl)amino)-5-(trifluoro-methyl)pyrimidin-4-yl)-5,6-dihydro-4H-thieno[2,3-c]pyrrol-4-one], the IC50 at CDK2/Cyclin E2 is no more than 100 nM; with OVCAR3 p-RB, 100 to 500 nM.
Turning to `CS(=O)(=O)N1CC[C@H](Nc2ncc(C(F)(F)F)c(-c3cc4c(s3)CNC4=O)n2)[C@H](F)C1` [Example 19, 2-(2-(((3R,4S)-3-fluoro-1-(methylsulfonyl)piperidin-4-yl)amino)-5-(trifluoro-methyl)pyrimidin-4-yl)-5,6-dihydro-4H-thieno[2,3-c]pyrrol-4-one], the half-maximal inhibitory concentration (IC50) on CDK2/Cyclin E2 and with OVCAR3 p-RB was no more than 100 nM throughout.
With `O=C1NCc2sc(-c3nc(N[C@H]4CCN(S(=O)(=O)c5cn[nH]c5)C[C@H]4F)ncc3C(F)(F)F)cc21` [Example 22, 2-(2-(((3R,4S)-1-((1H-pyrazol-4-yl)sulfonyl)-3-fluoropiperidin-4-yl)amino)-5-(trifluoromethyl)pyrimidin-4-yl)-5,6-dihydro-4H-thieno[2,3-c]pyrrol-4-one], the 50% inhibitory concentration (IC50) on CDK2/Cyclin E2 and in the experiment with OVCAR3 p-RB was no more than 100 nM in each case.
